# Source: patent US5098613A, “Anti-inflammatory agents” (Eli Lilly and Company, priority 1990, dated 1992)
# Structures can show the parent of a compound that is named as a salt. Where two headings read alike, the source gives them in different places.
# Biological target: T1, leukotriene B4 specific receptor on the membrane of human neutrophils (Homo sapiens, UniProt Q15722)
# T1 construct: incubating neutrophils (1×10^7 cells) with 0.1-0.2 nM ^3 H-LTB4; endogenous in cells; host or cells: human peripheral blood neutrophils (buffy coats of two blood donors)
# T1 sequence (Q15722 whole entry): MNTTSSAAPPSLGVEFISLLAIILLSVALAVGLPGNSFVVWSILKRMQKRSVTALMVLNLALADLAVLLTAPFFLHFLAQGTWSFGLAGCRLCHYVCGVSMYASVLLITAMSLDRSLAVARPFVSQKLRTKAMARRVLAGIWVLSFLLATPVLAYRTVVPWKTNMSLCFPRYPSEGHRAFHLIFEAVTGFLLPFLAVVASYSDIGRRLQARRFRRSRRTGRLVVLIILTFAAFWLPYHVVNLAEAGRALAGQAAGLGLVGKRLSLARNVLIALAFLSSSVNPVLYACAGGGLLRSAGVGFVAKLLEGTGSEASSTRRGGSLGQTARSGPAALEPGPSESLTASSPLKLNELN
# Experiment: Inhibition of Binding of ^3 H-LTB4 to Peripheral Human Neutrophils
# Settings: for inhibition at 1 µM: drug concentration 10^-6 M; for inhibition at 10 µM: read-out: LTB4 Binding Inhibition; for inhibition at 0.1 µM: drug concentration 10^-7 M
# Description: The effectiveness of compounds to inhibit the binding of leukotriene B4 to a specific receptor on the membrane of human neutrophils was measured by using an adaptation of a radio-ligand binding assay developed by Goldman and Goetzl, J. Immunol., 129, 1600 (1982). Other investigators have developed similar assays (see, e.g., Kreisle, et al., J. Exp. Med., 157, 628 (1983) and Lin, et al., Prostaglandins, 28, 837 (1984)).
# Cells used in the assay were isolated by standard techniques of centrifugation on Ficol-Hypaque, dextran 70 sedimentation and hypotonic lysis. The following procedure was used. Freshly-prepared buffy coat layers from two individuals were obtained from a local blood donor center. The cells were mixed and diluted to 484 ml. with phosphate buffered saline containing heparin (10 units/ml) and heat-inactivated calf serum (5%). This was divided into 20 ml. aliquots and the aliquots layered on top of Ficoll-Paque (12 ml.). The material was then centrifuged at 500 g. for 40 minutes at room temperature. The resulting upper layer of platelets and mononuclear cells was discarded. The lower layer containing erythrocytes and neutrophils was retained. Buffer was added (1 ml. per 4 ml. of lower layer) and the suspension mixed. For each milliliter of this mixture, 0.33 ml. of 6% Macrodex was added. After stirring, the cels were allowed to sediment for 1 hour at 37° C. The resulting erythrocyte pellet was discarded and the neutrophil enriched supernatant fluid centrifuged at 500 g. for 10 minutes at 4° C. Erythrocytes still present in this cell pellet were lysed by incubating the cells with 5-8 ml. ice-cold distilled water for 30-45 seconds. Subsequently, the volume was made up to 50 ml. by addition of ice-cold buffer and the cells resuspended. The suspension was then centrifuged at 300 g. for 10 minutes at 4° C. The cells were finally resuspended at a cell density of 2×10^7 cells/ml in the assay buffer. This buffer Consisted of Hanks' balanced salt solution and 0.1% ovalbumin (pH 7.3).
# The radio-ligand binding assay was conducted by incubating neutrophils (1×10^7 cells) with 0.1-0.2 nM ^3 H-LTB4 (sp. act. 150-220 Curies/mmol) and test compound (1×10^-5 M and 1×10^-6 M) for 10 minutes at 4° C. The amount of bound ^3 H-LTB4 was then measured and compared with the amount bound in the absence of test compound. The assay was carried out in microcentrifuge tubes by adding first 10 μl test compound dissolved in DMSO, followed by adding 20 μl ^3 H-LTB4 diluted in assay buffer, and finally adding 500 μl of the cell suspension pension. At the end of the 10 minutes incubation, 300 μl of a mixture of dibutyl and dinonyl phthalate (7:2) were added and the tubes centrifuged for 2 minutes in a microcentrifuge. The radioactivity bound to the cell pellet was measured by scintillation spectroscopy. Appropriate corrections for nonspecific bonding of ^3 H-LTB4 were made.
# [1] = drug concentration 10^-5 M, 4° C., 10 minutes
"inhibition at 1 µM (4° C., 10 minutes) [%]",inhibition at 10 µM [1] [%],"inhibition at 0.1 µM (4° C., 10 minutes) [%]",SMILES,inhibition at 10 µM [%]
3,2,–,"CCOC(=O)c1ccc(COc2cc(O)c(C(C)=O)cc2CC)cc1O [Example 147, 4-[(4-Acetyl-2-ethyl-5-hydroxyphenoxy)methyl]-2-hydroxybenzoic acid, ethyl ester]",–
59,97,–,"C=CCc1cc(C(C)=O)c(O)cc1OCCCCCC(C)(C)O [Example 103, 2-Hydroxy-4-(6-hydroxy-6-methylheptyloxy)-5-allylacetophenone]",–
14,44,–,"CCc1cc(C(C)=O)c(O)cc1OCc1ccc(C(=O)O)c(O)c1 [Example 148, 4-[(4-Acetyl-2-ethyl-5-hydroxyphenoxy)methyl]-2-hydroxybenzoic acid]",–
22,43,–,"CCc1cc(C(C)=O)c(O)cc1OCCCCCN [Example 137, 1-{4-[(5-Aminopentyl)oxy]-5-ethyl-2-hydroxyphenyl}ethanone]",–
5,32,–,"C=CCc1cc(C(=O)c2ccccc2)c(O)cc1OCCCCC#N [Example 104, 5-(4-Benzoyl-5-hydroxy-2-allylphenoxy)pentanenitrile]",–
64,106,–,"C=CCc1cc(C(C)=O)c(O)cc1OCCCCCC(=O)OC [Example 94, 6-(4-Acetyl-5-hydroxy-2-allylphenoxy)hexanoic acid, methyl ester]",–
51,96,–,"C=CCc1cc(C(C)=O)c(O)cc1OCCCCCC[S+](C)[O-] (stereo not drawn) [Example 79, 2-Hydroxy-4-[6-(methylsulfinyl)hexyloxy]-5-allylacetophenone]",–
59,90,–,"CCc1cc(C(C)=O)c(O)cc1OCCCCCCCC(C)(C)C(=O)N(C)O [Example 150, N-Methyl-N-hydroxy-9-(4-acetyl-2-ethyl-5-hydroxyphenoxy)-2,2-dimethylnonanamide]",–
82,101,45,"CCc1cc(C(C)=O)c(O)cc1OCCCCCC(C)(C)C(N)=O [Example 101, 7-(4-Acetyl-2-ethyl-5-hydroxyphenoxy)-2,2-methylheptanamide]",–
65,97,6,"CCc1cc(C(C)=O)c(O)cc1OCCCCCC(C)(C)C(=O)N(C)O [Example 149, 7-(4-Acetyl-2-ethyl-5-hydroxyphenoxy)-N-hydorxy-N,2,2-trimethylheptanamide]",–
14 to 59,71 to 94,–,"CCc1cc(C(C)=O)c(O)cc1OCCCCCCSC [Example 81, 2-Hydroxy-4-[6-(methylthio)hexyloxy]-5-ethylacetophenone]",–
53,91,–,"C=CCc1cc(C(C)=O)c(O)cc1OCCCCCC(=O)N(C)C [Example 97, 6-(4-Acetyl-5-hydroxy-2-allylphenoxy)-N,N-dimethylhexanamide]",–
23,73,–,"C=CCc1cc(C(C)=O)c(O)cc1OCCCCCC(=O)O [Example 86, 6-(4-Acetyl-2-allyl-5-hydroxyphenoxy)hexanoic acid]",–
38,83,–,"CCCc1cc(C(C)=O)c(O)cc1OCCCCC#N [Example 118, 5-(4-Acetyl-5-hydroxy-2-propylphenoxy)-pentanenitrile]",–
64,97,–,"CSCc1cc(C(C)=O)c(O)cc1OCCCCCCC#N [Example 128, 7-[4-Acetyl-5-hydroxy-2-(methylthiomethyl)-phenoxy]heptanenitrile]",–
37,86,–,"CCc1cc(C(C)=O)c(O)cc1OCCCCCCC(=O)O [Example 85, 7-(4-Acetyl-2-ethyl-5-hydroxyphenoxy)heptanoio acid]",–
27,69,–,"CCc1cc(C(C)=O)c(O)cc1OCCCCc1nnn(CC(=O)O)n1 [Example 143, 5-[4-(4-Acetyl-2ethyl-5-hydroxyphenoxy)-butyl]-2H-tetrazole-2-acetic acid]",–

# Continued, compound first:
SMILES,"inhibition at 1 µM (4° C., 10 minutes) [%]",inhibition at 10 µM [1] [%],"inhibition at 0.1 µM (4° C., 10 minutes) [%]",inhibition at 10 µM [%]
"CCc1cc(C(C)=O)c(O)cc1OCCCCCCC(=O)NC [Example 99, 7-(-Acetyl-2-ethyl-5-hydroxyphenoxy)N-methylheptanamide]",54,–,–,97
"CCCCCCc1cc(C(C)=O)c(O)cc1OCCCCC#N [Example 29, 5-(4-Acetyl-2-hexyl-5-hydroxyphenoxy)-pentanenitrile]",12,51,–,–
"C=CCc1cc(C(C)=O)c(O)cc1OCCCCC#N [Example 139, 5-(4-Acetyl-5-hydroxy-2-allylphenoxy)pentanenitrile]",53,–,–,92
"CCCc1cc(C(C)=O)c(O)cc1OCCCCN [Example 74, 4-(4-Aminobutoxy)-2-hydroxy-5-propylacetophenone hydrochloride]",0,0,–,–
"C=CCc1cc(C(C)=O)c(O)cc1OCCCCCCCCC#N [Example 23, 9-(4-Aoetyl-5-hydroxy-2-allylphenoxy)-nonanenitrile]",50,85,–,–
"C=CCc1cc(C(C)=O)c(O)cc1OCc1ccc(CC#N)cc1 [Example 71, 4-[(4-Acetyl-5-hydroxy-2-allylphenoxy)-methyl]benzeneacetonitrile]",17,30,–,–
"C=CCCOc1cc(O)c(C(C)=O)cc1CC=C [Example 45, 4-(3-Butenyloxy)-2-hydroxy-5-allylacetophenone]",15,51,–,–
"C=CCc1cc(C(C)=O)c(O)cc1OCCCCN1CCOCC1 [Example 75, 2-Hydroxy-4-[4-(4-morpholino)butoxy]-5-allylacetophenone hydrochloride]",0,0,–,–
"C=CCc1cc(C(C)=O)c(O)cc1OCCCCCC#N [Example 21, 6-(4-Acetyl-5-hydroxy-2-allylphenoxy)-hexanenitrile]",32,81,–,–
"C=CCc1cc(C(=O)CCCC(=O)O)c(O)cc1OCCCCC#N [Example 106, 5-[4-(4-Cyanobutoxy)-2-hydroxy-5-allylphenyl)-5-oxopentanoic acid]",1,9,–,–
"C=CCc1cc(C(C)=O)c(O)cc1OCCCCCC [Example 39, 4-(Hexyloxy)-2-hydroxy-5-allylacetophenone]",9,50,–,–
"C=CCc1cc(C(C)=O)c(O)cc1OCCCC [Example 40, 4-Butoxy-2-hydroxy-5-allylacetophenone]",8,31,–,–
"C=CCc1cc(C(C)=O)c(O)cc1OCCCCc1nnnn1C [Example 119, 2-Hydroxy-4-[4-(1-methyl-lH-tetrazol-5-yl)-butoxy]-5-allylacetophenone]",13,57,–,–
"CCc1cc(C(C)=O)c(O)cc1OCc1cccc(C(F)(F)F)c1 [Example 58, 5-Ethyl-2-hydroxy-4-(3-trifluoromethyl-benzyloxy)acetophenone]",22,67,–,–
"C=CCc1cc(C(C)=O)c(O)cc1OCc1cccc(CC#N)c1 [Example 60, 3-[(4-Acetyl-5-hydroxy-2-allylphenoxy)-methyl]benzeneacetonitrile]",6,12,–,–
